What was measured:
Renca tumor-bearing mice = assay: In vivo cytokine assay, Renca tumor-bearing mice; set-up: species or system mouse; conditions: for IFNγ in plasma / IL1β in plasma / IL12p70 in plasma / IL-6 in plasma / IL-10 in plasma / IP10 in plasma / MCP-1 in plasma / MIP1α in plasma / MIP1β in plasma: 1.86 mg/kg; for systemic pro-inflammatory cytokine (IL-6 and TNF) production: plasma
Description: Cytokines were measured in mouse plasma harvested at 3, 6, 24, or 48 hours after treatment with compounds or ADCs using a Milliplex MAP mouse cytokine/chemokine magnetic bead panel assay kit (MCYTOMAG-70k custom 11-plex kit: MCP1, MIP1a, MIP1(3, TNFα, IFNγ, IL-10, IL-12p70, IL-6, IL-1β, IP10, RANTES) and analyzed using a Luminex™ MAGPIX™ Instrument System. Values that were outside of the standard curve range (<3.2 or […]) were either excluded from calculation of the mean values or, when indicated, converted to […] for calculation of the mean values.
Renca cancer cells (ATCC) were cultured in RPMI-1640 (ATCC) with 10% heat-inactivated fetal bovine serum, Pen-Strep (100 U/mL-100 μg/mL), MEM non-essential amino acids (1×), sodium pyruvate (1 mM), and L-glutamine (2 mM). Renca cancer cells were implanted (2*10^6 cells in 200 μL 25% Matrigel) subcutaneously into Balb/c female mice. In some experiments, Renca tumor cells were engineered to express the indicated murine or human target antigen.
(§1) When tumor volumes reached 100 mm^3, the mice were dosed with either compounds or ADCs by intraperitoneal or intravenous injection at the indicated dosing schedule and tumor volumes were monitored twice weekly. Compounds were formulated in 40% PEG400 in saline.
(§2) A syngeneic system was used to assess the ability of the STING agonist ADCs to induce immune responses in vivo and drive an anti-tumor immune response. The Renca system is a subcutaneous, mouse renal adenocarcinoma model. Female Balb/c mice were implanted with 2×10^6 Renca cells subcutaneously in the flank on day 0. When mean tumor size of 100 mm^3 (measured by using the formula Volume (mm^3)=0.5*Length*Width^2 where length is the longer dimension) was reached mice were randomized into treatment groups of ≥5 mice per group. Animals were then treated intraperitoneally (ADCs or compounds) or intravenously (compounds) with the indicated treatment every 7 days, for 3 doses total (or as indicated). Tumor length and width and the weight of the animals was measured throughout the study and tumor volume was calculated using the formula above. Animals were followed until the tumor volume reached ˜1000 mm^3; animals were then euthanized.

[1] = tested on: human CD228-LL2 tumor-bearing mice; assay: In vivo cytokine assay, human CD228-LL2 tumor-bearing mice; set-up: species or system mouse
Description: Cytokines were measured in mouse plasma harvested at 3, 6, 24, or 48 hours after treatment with compounds or ADCs using a Milliplex MAP mouse cytokine/chemokine magnetic bead panel assay kit (MCYTOMAG-70k custom 11-plex kit: MCP1, MIP1a, MIP1(3, TNFα, IFNγ, IL-10, IL-12p70, IL-6, IL-1β, IP10, RANTES) and analyzed using a Luminex™ MAGPIX™ Instrument System. Values that were outside of the standard curve range (<3.2 or >10,000 μg/mL) were either excluded from calculation of the mean values or, when indicated, converted to 3.2 or 10,000 μg/mL for calculation of the mean values.
LL2 cancer cells were engineered using lentiviral transduction to express human CD228. LL2 cells were cultured in DMEM (ATCC) with 10% heat-inactivated fetal bovine serum. Female C57BL/6 mice were implanted with 1×10^6 hCD228-LL2 tumor cells in 100 μL 25% Matrigel in RPMI 1640 medium subcutaneously. Once tumor volumes reached 100 mm^3, mice were randomized into treatment groups and dosed as indicated. […] Stock concentrations of mAb or conjugates were diluted to a desired concentration (with 20 mM His, 6% Trehalose or 0.01% Tween20 in PBS) and injected intraperitoneally (i.p.) or intravenously (i.v.) as indicated. The small molecule was formulated in 40% PEG400 in saline and injected i.v.

[2] = tested on: THP1-Dual™ cells (IRF-Lucia luciferase reporter); assay: THP1-Dual™ cell reporter assay; assay type: cell-based, human; conditions: free drug, 24 h (48 h elsewhere in the source)
In short: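 THP1-Dual cells (~100,000 per well) exposed to compound or ADC in supplemented RPMI-1640 with 10% FBS; supernatant taken at 24 h for compounds or 48 h for ADCs. Secreted IRF-driven Lucia luciferase measured by luminescence with QUANTI-Luc reagent.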

Renca cancer cells = assay: In vivo anti-tumor activity, Renca tumor model
Description: In some experiments, Renca tumor cells were engineered to express the indicated murine or human target antigen.
as §1, §2

[3] = tested on: wild type (WT) murine bone marrow-derived macrophages; assay: Bone marrow-derived macrophage assay, wild type; assay type: cell-based, mouse; conditions: 24 hours
Description: Potency of the compounds described herein was evaluated using mouse bone-marrow derived macrophages cultured from wild type (C57BL/6J, the Jackson Laboratory #000664) or STING-deficient (C57BL/6J-Sting1^gt/J, the Jackson Laboratory #017537) mice. Briefly, mouse bone marrow cells were cultured for 7-10 days in RPMI-1640 (Gibco) with 10% heat-inactivated fetal bovine serum, Pen-Strep (100 U/mL-100 […], Gibco), HEPES (10 mM, Gibco), sodium pyruvate (1 mM, Gibco), GlutaMAX (1×, Gibco), beta-mercaptoethanol ([…], Gibco) and 20-40 ng/mL murine M-CSF (Peprotech, #315-02). Cells were plated in a 96-well flat bottom tissue culture-treated clear polystyrene plate (Corning Costar #3596) at ˜100,000 cells per well in 200 μL with the indicated concentration of the compound. The supernatant was harvested at 24 hours and cytokines were measured using a Milliplex MAP mouse cytokine/chemokine magnetic bead panel assay kit (MCYTOMAG-70k custom 11-plex kit: MCP1, MIP1α, MIP1β, TNFα, IFNγ, IL-10, IL-12p70, IL-1β, IL-6, IP10, RANTES) and analyzed using a Luminex™ MAGPIX™ Instrument System.

[4] = dose 1, 6 h, 0.08 mg/kg Q7Dx3 i.v.
[5] = dose 1, 6 h, 1.5 mg/kg Q7Dx3 i.v.
[6] = dose 2, 6 h, 0.08 mg/kg Q7Dx3 i.v.
[7] = dose 2, 6 h, 1.5 mg/kg Q7Dx3 i.v.
[8] = dose 3, 6 h, 0.08 mg/kg Q7Dx3 i.v.
[9] = dose 3, 6 h, 1.5 mg/kg Q7Dx3 i.v.

Structure (SMILES): CCn1nc(C)cc1C(=O)Nc1nc2cc(C(N)=O)cc(OC)c2n1C/C=C/Cn1c(NC(=O)c2cc(C)nn2CC)nc2cc(C(N)=O)cc(OCCCN3CCOCC3)c21.O=C(O)C(F)(F)F.O=C(O)C(F)(F)F.O=C(O)C(F)(F)F [Compound A, (E)-1-(4-(5-carbamoyl-2-(1-ethyl-3-methyl-1H-pyrazole-5-carboxamido)-7-(3-morpholinopropoxy)-1H-benzo[d]imidazol-1-yl)but-2-en-1-yl)-2-(1-ethyl-3-methyl-1H-pyrazole-5-carboxamido)-7-methoxy-1H-benzo[d]imidazole-5-carboxamide tris(2,2,2-trifluoroacetate)]
- IFNγ in plasma (Renca tumor-bearing mice; 3 h after treatment): 0.3 pg/mL
- IL1β in plasma (Renca tumor-bearing mice; 3 h after treatment): 1.5 pg/mL
- IL12p70 in plasma (Renca tumor-bearing mice; 3 h after treatment): 0.2 pg/mL
- IL-6 in plasma (Renca tumor-bearing mice; 3 h after treatment): 3550 pg/mL
- IL-10 in plasma (Renca tumor-bearing mice; 3 h after treatment): 0.5 pg/mL
- IP10 in plasma (Renca tumor-bearing mice; 3 h after treatment): 4780 pg/mL
- MCP-1 in plasma (Renca tumor-bearing mice; 3 h after treatment): 14500 pg/mL
- MIP1α in plasma (Renca tumor-bearing mice; 3 h after treatment): 1300 pg/mL
- MIP1β in plasma (Renca tumor-bearing mice; 3 h after treatment): 6370 pg/mL
- IFNγ in plasma (Renca tumor-bearing mice; 6 h after treatment): 71.8 pg/mL
- IL1β in plasma (Renca tumor-bearing mice; 6 h after treatment): 0.6 pg/mL
- IL12p70 in plasma (Renca tumor-bearing mice; 6 h after treatment): 0.2 pg/mL
- IL-6 in plasma (Renca tumor-bearing mice; 6 h after treatment): 732 pg/mL
- IL-10 in plasma (Renca tumor-bearing mice; 6 h after treatment): < 3.2 pg/mL
- IP10 in plasma (Renca tumor-bearing mice; 6 h after treatment): 4980 pg/mL
- MCP-1 in plasma (Renca tumor-bearing mice; 6 h after treatment): 10800 pg/mL
- MIP1α in plasma (Renca tumor-bearing mice; 6 h after treatment): 209 pg/mL
- MIP1β in plasma (Renca tumor-bearing mice; 6 h after treatment): 2150 pg/mL
- IFNγ in plasma (Renca tumor-bearing mice; 24 h after treatment): < 3.2 pg/mL
- IL1β in plasma (Renca tumor-bearing mice; 24 h after treatment): 0.3 pg/mL
- IL12p70 in plasma (Renca tumor-bearing mice; 24 h after treatment): < 3.2 pg/mL
- IL-6 in plasma (Renca tumor-bearing mice; 24 h after treatment): 16.4 pg/mL
- IL-10 in plasma (Renca tumor-bearing mice; 24 h after treatment): < 3.2 pg/mL
- IP10 in plasma (Renca tumor-bearing mice; 24 h after treatment): 890 pg/mL
- MCP-1 in plasma (Renca tumor-bearing mice; 24 h after treatment): 540 pg/mL
- MIP1α in plasma (Renca tumor-bearing mice; 24 h after treatment): 41.7 pg/mL
- MIP1β in plasma (Renca tumor-bearing mice; 24 h after treatment): 35.5 pg/mL
- systemic pro-inflammatory cytokine (IL-6 and TNF) production (Renca tumor-bearing mice): induced robust production of IL-6 and TNF
- IFNg, peripheral blood (plasma), mean [1, 4]: 9.8 pg/mL
- IL1b, peripheral blood (plasma), mean [1, 4]: 12.1 pg/mL
- IL-6, peripheral blood (plasma), mean [1, 4]: 346.7 pg/mL
- IL-10, peripheral blood (plasma), mean [1, 4]: 15.8 pg/mL
- IL-12p70, peripheral blood (plasma), mean [1, 4]: 3.0 pg/mL
- IP10, peripheral blood (plasma), mean [1, 4]: 7501.0 pg/mL
- MCP-1, peripheral blood (plasma), mean [1, 4]: 3780.5 pg/mL
- MIP1a, peripheral blood (plasma), mean [1, 4]: 107.1 pg/mL
- MIP1b, peripheral blood (plasma), mean [1, 4]: 474.6 pg/mL
- RANTES, peripheral blood (plasma), mean [1, 4]: 33.9 pg/mL
- TNFa, peripheral blood (plasma), mean [1, 4]: 11.0 pg/mL
- IFNg, peripheral blood (plasma), mean [1, 5]: 392.4 pg/mL
- IL1b, peripheral blood (plasma), mean [1, 5]: 38.0 pg/mL
- IL-6, peripheral blood (plasma), mean [1, 5]: 10532.0 pg/mL
- IL-10, peripheral blood (plasma), mean [1, 5]: 71.5 pg/mL
- IL-12p70, peripheral blood (plasma), mean [1, 5]: 32.3 pg/mL
- IP10, peripheral blood (plasma), mean [1, 5]: >10000 pg/mL
- MCP-1, peripheral blood (plasma), mean [1, 5]: 10000.0 pg/mL
- MIP1a, peripheral blood (plasma), mean [1, 5]: 574.2 pg/mL
- MIP1b, peripheral blood (plasma), mean [1, 5]: 4253.1 pg/mL
- RANTES, peripheral blood (plasma), mean [1, 5]: 1705.3 pg/mL
- TNFa, peripheral blood (plasma), mean [1, 5]: 95.7 pg/mL
- IFNg, peripheral blood (plasma), mean [1, 6]: 11.7 pg/mL
- IL1b, peripheral blood (plasma), mean [1, 6]: 26.2 pg/mL
- IL-6, peripheral blood (plasma), mean [1, 6]: 936.6 pg/mL
- IL-10, peripheral blood (plasma), mean [1, 6]: 9.5 pg/mL
- IL-12p70, peripheral blood (plasma), mean [1, 6]: 9.7 pg/mL
- IP10, peripheral blood (plasma), mean [1, 6]: 9045.3 pg/mL
- MCP-1, peripheral blood (plasma), mean [1, 6]: 7114.6 pg/mL
- MIP1a, peripheral blood (plasma), mean [1, 6]: 206.0 pg/mL
- MIP1b, peripheral blood (plasma), mean [1, 6]: 1550.3 pg/mL
- RANTES, peripheral blood (plasma), mean [1, 6]: 236.6 pg/mL
- TNFa, peripheral blood (plasma), mean [1, 6]: 18.4 pg/mL
- IFNg, peripheral blood (plasma), mean [1, 7]: 1550.6 pg/mL
- IL1b, peripheral blood (plasma), mean [1, 7]: 57.4 pg/mL
- IL-6, peripheral blood (plasma), mean [1, 7]: 22725.1 pg/mL
- IL-10, peripheral blood (plasma), mean [1, 7]: 92.3 pg/mL
- IL-12p70, peripheral blood (plasma), mean [1, 7]: 75.4 pg/mL
- IP10, peripheral blood (plasma), mean [1, 7]: >10000 pg/mL
- MCP-1, peripheral blood (plasma), mean [1, 7]: >10000 pg/mL
- MIP1a, peripheral blood (plasma), mean [1, 7]: 846.6 pg/mL
- MIP1b, peripheral blood (plasma), mean [1, 7]: 5235.4 pg/mL
- RANTES, peripheral blood (plasma), mean [1, 7]: 1906.1 pg/mL
- TNFa, peripheral blood (plasma), mean [1, 7]: 204.0 pg/mL
- IFNg, peripheral blood (plasma), mean [1, 8]: 21.9 pg/mL
- IL1b, peripheral blood (plasma), mean [1, 8]: 66.6 pg/mL
- IL-6, peripheral blood (plasma), mean [1, 8]: 1494.7 pg/mL
- IL-10, peripheral blood (plasma), mean [1, 8]: 36.3 pg/mL
- IL-12p70, peripheral blood (plasma), mean [1, 8]: 220.3 pg/mL
- IP10, peripheral blood (plasma), mean [1, 8]: 7718.5 pg/mL
- MCP-1, peripheral blood (plasma), mean [1, 8]: 5009.1 pg/mL
- MIP1a, peripheral blood (plasma), mean [1, 8]: 270.0 pg/mL
- MIP1b, peripheral blood (plasma), mean [1, 8]: 1009.6 pg/mL
- RANTES, peripheral blood (plasma), mean [1, 8]: 172.9 pg/mL
- TNFa, peripheral blood (plasma), mean [1, 8]: 29.6 pg/mL
- IFNg, peripheral blood (plasma), mean [1, 9]: 1236.8 pg/mL
- IL1b, peripheral blood (plasma), mean [1, 9]: 36.8 pg/mL
- IL-6, peripheral blood (plasma), mean [1, 9]: 14635.1 pg/mL
- IL-10, peripheral blood (plasma), mean [1, 9]: 62.8 pg/mL
- IL-12p70, peripheral blood (plasma), mean [1, 9]: 43.9 pg/mL
- IP10, peripheral blood (plasma), mean [1, 9]: >10000 pg/mL
- MCP-1, peripheral blood (plasma), mean [1, 9]: >10000 pg/mL
- MIP1a, peripheral blood (plasma), mean [1, 9]: 743.4 pg/mL
- MIP1b, peripheral blood (plasma), mean [1, 9]: 4517.1 pg/mL
- RANTES, peripheral blood (plasma), mean [1, 9]: 2533.7 pg/mL
- TNFa, peripheral blood (plasma), mean [1, 9]: 195.3 pg/mL
- relative potency of free drug, Lucia reporter [2]: significantly more potent than (2′, 3′)-Rp,Rpc-diAMPS disodium (Compound B)
- tolerability (Renca cancer cells; Renca tumor-bearing mice): less well tolerated
- average weight loss (Renca cancer cells; after the 2nd dose): 6.2%

Structure (SMILES): CCn1nc(C)cc1C(=O)Nc1nc2cc(C(N)=O)cc(OC)c2n1C/C=C/Cn1c(NC(=O)c2cc(C)nn2CC)nc2cc(C(N)=O)cc(OCCCNC)c21 [Compound 12a]
- systemic pro-inflammatory cytokine (IL-6 and TNF) production (Renca tumor-bearing mice): induced robust production of IL-6 and TNF
- cytokine production [3]: induced cytokine production
- relative potency of free drug, Lucia reporter [2]: less potent than compound 1 and compound A
- tumor growth / anti-tumor activity (Renca cancer cells; Renca, q7dx3): limited anti-tumor efficacy
